This is an account of results in BindingDB's records for doi:10.1124/jpet.104.075069 (Targacept, 2005).

pKi: −log10 of the molar value.

A word on the pKi: it is the negative decadic logarithm of the Ki, by convention in mol/L.

Assay [1] deals with Neuronal acetylcholine receptor subunit alpha-7 (Rattus norvegicus, UniProt Q05941).
Assay [2] has as its target Neuronal acetylcholine receptor subunit alpha-4 (Rattus norvegicus, UniProt P09483).

Neuronal acetylcholine receptor subunit alpha-4, sequence (P09483 whole entry): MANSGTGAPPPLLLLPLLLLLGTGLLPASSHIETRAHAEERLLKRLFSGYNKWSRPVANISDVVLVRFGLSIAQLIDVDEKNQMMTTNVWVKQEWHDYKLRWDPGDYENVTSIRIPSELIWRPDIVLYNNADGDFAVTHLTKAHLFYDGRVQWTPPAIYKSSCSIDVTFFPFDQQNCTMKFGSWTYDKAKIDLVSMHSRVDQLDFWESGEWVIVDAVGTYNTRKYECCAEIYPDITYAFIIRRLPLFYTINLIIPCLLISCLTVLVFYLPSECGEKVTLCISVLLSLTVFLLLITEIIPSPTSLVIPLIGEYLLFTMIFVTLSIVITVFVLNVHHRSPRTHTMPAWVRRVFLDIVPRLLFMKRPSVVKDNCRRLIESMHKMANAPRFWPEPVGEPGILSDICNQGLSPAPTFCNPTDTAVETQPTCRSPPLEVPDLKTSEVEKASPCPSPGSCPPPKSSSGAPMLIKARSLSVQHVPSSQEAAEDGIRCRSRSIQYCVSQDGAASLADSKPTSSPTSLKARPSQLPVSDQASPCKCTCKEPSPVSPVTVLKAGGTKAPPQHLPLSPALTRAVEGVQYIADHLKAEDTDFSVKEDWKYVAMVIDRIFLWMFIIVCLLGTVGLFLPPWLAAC
Neuronal acetylcholine receptor subunit alpha-7, sequence (Q05941 whole entry): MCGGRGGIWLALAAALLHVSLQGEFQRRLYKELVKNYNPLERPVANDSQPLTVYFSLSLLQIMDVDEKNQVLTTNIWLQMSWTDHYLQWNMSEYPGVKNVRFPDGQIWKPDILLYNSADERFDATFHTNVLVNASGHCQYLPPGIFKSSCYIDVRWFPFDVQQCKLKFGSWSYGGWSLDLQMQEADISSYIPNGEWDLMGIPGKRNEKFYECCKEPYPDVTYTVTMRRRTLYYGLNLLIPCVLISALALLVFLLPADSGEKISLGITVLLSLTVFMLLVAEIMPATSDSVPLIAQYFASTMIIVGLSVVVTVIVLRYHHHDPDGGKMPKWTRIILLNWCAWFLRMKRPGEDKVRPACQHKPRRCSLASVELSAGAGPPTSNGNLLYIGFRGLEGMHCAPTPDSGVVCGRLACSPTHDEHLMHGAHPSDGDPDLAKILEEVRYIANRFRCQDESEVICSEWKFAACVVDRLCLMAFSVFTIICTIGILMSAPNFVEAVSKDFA

Take `C[N+](C)(C)CCOC(N)=O` [(2-Hydroxyethyl)trimethyl ammonium chloride carbamate]: the pKi in assay [1] was 5.00; in assay [2] it was 7.18.
With `c1cncc(OCC2CCN2)c1` (stereo not drawn) [A-85380], the negative-log Ki (pKi) in assay [1] was 7.26.
Take `Cc1cc(C2CCCN2C)on1` (stereo not drawn) [ABT-418]: the pKi was 5.71 in assay [1] and 8.33 in assay [2].
`O=c1cccc2n1CC1CNCC2C1` (stereo not drawn) [CAS_485-35-8]: the figures for the pKi in assay [1] and in assay [2] were 5.94 and 9.70, respectively.
In the same order, the values of `CNC(=O)OCC[N+](C)(C)C` [CAS_14721-69-8] are 5.36 and 8.60.
Molecule `CCN1CC2(COC(=O)c3ccccc3-n3c(O)cc(C)c3O)CCC(OC)C34C5CC6C(OC)CC(O)(C5C6OC)C(O)(C(OC)C23)C14` (stereo not drawn) [CAS_21019-30-7] gave a pKi in assay [2] of 6.23.
Take `COc1ccc(C=C2CCCN=C2c2cccnc2)c(OC)c1` [CAS_156223-05-1]: the values for the pKi in assay [1] and in assay [2] were 6.22 and 6.56, respectively.
The matching figures for `COC1CC=C2CCN3CCC4=C(CC(=O)OC4)C23C1` (stereo not drawn) [NSC_31762]: 5.11 and 7.61.
The matching figures for `C#Cc1cncc(C2CCCN2C)c1` (stereo not drawn) [NSC_6442277]: 4.84 and 9.30.
The matching figures for `c1cncc(C2CC3CCN2CC3)c1` (stereo not drawn) [TC-2429]: 7.91 and 9.00.
